According to ChEMBL document CHEMBL1146441, “Naphthalenone and Phthalide Metabolites from Lachnum papyraceum 1” (J Nat Prod, 1997):
In brackets after ≈: the same amount, converted by molar mass. Activity calls are given as the source filed them. The rule behind the calls is not given here.

Legend:
Micrococcus luteus = assay: Antibacterial activity against Micrococcus luteus; assay type: functional
[1] = tested on: Enterobacter cloacae subsp. dissolvens; assay: Antibacterial activity against Enterobacter dissolvens; assay type: functional
Rhizomucor miehei = assay: Antifungal activity against Mucor miehei; assay type: functional
Paecilomyces variotii = assay: Antifungal activity against Paecilomyces variotii; assay type: functional
Penicillium chrysogenum = assay: Antifungal activity against Penicillium notatum; assay type: functional
L1210 = assay: Cytotoxicity against mouse L1210 cells after 48 hrs; assay type: functional, cell-based; settings: L1210, 48 h
Lepidium sativum = assay: Phytotoxicity against Lepidium sativum assessed per disk; assay type: functional, organism-based

Work on `COc1cc2c(c(O)c1C)C(=O)CCC2O` (stereo unspecified) yielded an MIC (Micrococcus luteus) of 100 µg/mL (≈ 450 µM), an MIC [1] of 100 µg/mL (≈ 450 µM) and an MIC (Rhizomucor miehei) of 100 µg/mL (≈ 450 µM). It also gave an MIC (Paecilomyces variotii) of 100 µg/mL (≈ 450 µM), an MIC (Penicillium chrysogenum) of 100 µg/mL (≈ 450 µM) and an IC50 (L1210) of 25 µg/mL (≈ 112 µM). For the same compound, the IC50 (Lepidium sativum) was 100 µg.

`COc1c(C)c(OCC=C(C)C)c2c(c1C(=O)O)C(=O)OC2` was tested, and the Activity (Micrococcus luteus) was “inactive”, the Activity [1] was “inactive” and the Activity (Rhizomucor miehei) was “inactive”. The Activity (Paecilomyces variotii) was “inactive”, the Activity (Penicillium chrysogenum) was “inactive” and the IC50 (L1210) was 50 µg/mL (≈ 163 µM). The Activity (Lepidium sativum) was “inactive”.

For `COC(=O)c1c(OC)c(C)c(OCC=C(C)C)c2c1C(=O)OC2`, the Activity (Micrococcus luteus) was “inactive”, the Activity [1] was “inactive” and the Activity (Rhizomucor miehei) was “inactive”. For the same compound, the Activity (Paecilomyces variotii) was “inactive”, the Activity (Penicillium chrysogenum) was “inactive” and the IC50 (L1210) was 25 µg/mL (≈ 78 µM). The Activity (Lepidium sativum) was “inactive”.
